# Patent US12365651B2, “Use of pirfenidone and derivatives for modulation of B lymphocyte activity and organ protection from acute tissue damage” (Washington University, priority 2017, dated 2025)
# Legend:
# [1] = tested on: peritoneal derived inflammatory cells (PDICs); assay: CD86 on CD19+ cells in cultured peritoneal derived inflammatory cells (PDICs), wild type; type: cell-based, mouse; details: for number of CD19+ CD86high lymphocytes: 24 h, p<0.001
# Protocol: Peritoneal derived inflammatory cells (PDICs) were harvested from the peritoneal cavity of thioglycolate-stimulated wild-type and TIRAP−/− deficient mice. PDIC cultures contain an admixture of inflammatory cells, including CD19+ B cells (40). TIRAP deficient mice were a gift from Dr. Ruslan Medzhitov (Yale University, New Haven, CT). PDICs were harvested on day 4 after i.p. injection of 1 ml of thioglycolate medium (Millipore, Billerica, MA, USA). Mice were euthanized, and the peritoneal cavity was washed 3-4 times with 3 mLs of Dulbecco's modified medium containing 10% fetal calf serum. A 3 mL syringe with an 18-gauge needle was used to inject the peritoneal cavity and retrieve the medium containing PDICs. Harvested cells were centrifuged at 250 g for 5 minutes, re-suspended in 5 mL of media and then filtered through a 40 μm strainer. Cells were plated at ˜1.5 million cells/mL in 12 or 24 well plates. Primary splenic derived B lymphocytes were isolated with the MagniSort Mouse B cell Enrichment Kit (Invitrogen, Carlsbad, CA, USA) according to manufacturer's instruction and plated in 96 well plates at 1 million cells/ml. The purity of isolated B cells was checked by flow cytometry and was >85% in all reported experiments. Both PDICs and primary B lymphocytes were cultured in DMEM with 10% FCS, 1 mM sodium pyruvate, penicillin/streptomycin (GIBCO, 1×), 2 mM L-Glutamine, 10 mM Hepes and 55 μM 2-Mercaptoethanol.
# We used LPS-EB ultrapure lipopolysaccharide (InvivoGen, San Diego, CA, USA) or necrotic cell extracts (NCEs) to stimulate the cell cultures. For stimulation with LPS, LPS was added at 100 ng/mL at the time of plating. NCEs were prepared from H9c2 cells, in a similar manner to the protocol described for mouse heart and mouse liver extracts (18). For stimulation, NCEs were added at a final concentration of 10 μg/mL at the time the cells were plated. LPS and NCE stimulation were performed in the presence and absence of Pirfenidone for 24 hours. […]
# [2] = tested on: PDICs obtained from thioglycolate-stimulated TIRAP−/− mice; assay: CD86 on CD19+ cells in cultured PDICs from TIRAP−/− mice; type: cell-based, mouse; details: LPS stimulated cultures
# Text: Noting that prior studies have shown that B cells are activated by engagement of TLR by damage-associated molecular patterns (DAMPs) released by necrotic cells (17), and noting that TLR signaling was present in CD19+CD11b− lymphocytes sorted from DT injured animals but absent in the same cells sorted from DT injured animals treated with Pirfenidone, we focused our in vitro studies on CD19+ cells using lipolysaccharide (a classic TLR4 agonist and a T-independent antigen), as well as necrotic cardiac cell extracts, which we and others have shown signal through TLR4 (18). […] To further explore the role of TLR mediated signaling, we repeated these experiments in PDICs obtained from thioglycolate-stimulated TIRAP−/− mice. […] Importantly, both mechanisms were sensitive to treatment with Pirfenidone (FIG. 10E and FIG. 10F).
# Peritoneal derived inflammatory cells (PDICs) were harvested from the peritoneal cavity of thioglycolate-stimulated wild-type and TIRAP−/− deficient mice. PDIC cultures contain an admixture of inflammatory cells, including CD19+ B cells (40). TIRAP deficient mice were a gift from Dr. Ruslan Medzhitov (Yale University, New Haven, CT). PDICs were harvested on day 4 after i.p. injection of 1 ml of thioglycolate medium (Millipore, Billerica, MA, USA). […]
smiles,measurement,setting,value
"Cc1ccc(=O)n(-c2ccccc2)c1 [Pirfenidone, 5 methyl-1-phenyl-2-[H] pyridone]",LPS induced expression of CD86 on B cells,"[1]; B lymphocytes from the peritoneum, 24 hours, LPS + 0.5% pirfenidone",significantly reduced
same,number of CD19+ CD86high lymphocytes,[1]; PDICs stimulated with LPS,significantly attenuated
same,number of CD19+ CD86high lymphocytes,[1]; PDICs stimulated with cytosolic extracts from necrotic cells,significantly attenuated
same,CD19+ CD86high lymphocytes,[2],small but significant (p<0.001) decrease
